Test results reported in patent US20240270719A1, “CRYSTALLINE FORMS OF 2-(4-(4-(AMINOMETHYL)-1-OXO-1,2-DIHYDROPHTHALAZIN-6-YL)-1-METHYL-1H-PYRAZOL-5-YL)-4-CHLORO-6-CYCLOPROPOXY-3-FLUOROBENZONITRILE” (Mirati Therapeutics, Inc., priority 2023, published 2024).
Where a name gives a salt, the structure may show the parent alone.

What was measured:
[1] = Relative stability of hydrate forms, competitive slurry experiments in IPA/water systems; assay type: physicochemical
Excerpt: The relative stability between free base Form A, Form B, and Form D was investigated by conducting competitive slurry experiments in isopropyl alcohol (IPA)/water systems at room temperature. […] Further addition of Form A to the experiments verified the result. In systems with αw≥0.37, only Form A was observed after 1 day of stirring at room temperature. Further addition of Form B and Form D to the experiment confirmed the outcome.

[2] = Intrinsic dissolution rate and drug in capsule dissolution in FaSSGF and FaSSIF; assay type: physicochemical
Protocol: The IDR rate was calculated using the slope of the linear curve divided by the surface area of tablet (0.5 cm^2). […] 0.6 mL liquid was removed with a syringe at each time point and filtered. The concentration of filtrates was analyzed by HPLC.

[3] = Compressibility, tabletability, compatibility and physical stability under compaction; assay type: physicochemical
Protocol: The compressibility (i.e., porosity vs compaction pressure), tabletability (i.e., tensile strength vs compaction pressure), and compatibility (i.e. tensile strength vs porosity) of Free Base Form A of Compound 1 was measured.

[4] = Excipient compatibility, total impurity content of binary mixtures by HPLC; assay type: physicochemical; conditions: 40° C./75% RH, 8 weeks; for Compatibility with excipients (total impurity content): binary mixtures, open condition; for Risk of chemical stability: with excipients
Excerpt: Binary mixtures of samples were created by mixing the substance and the excipients (1:10 Compound to Excipients for fillers and 1:1 for all other excipients) using a mortar and pestle and the resultant mixture was accurately weighed and transferred into sample vials. The excipients used were as follows: colloidal silicon dioxide 200, croscarmellose sodium, crosprovidone XL-10, dibasic calcium phosphate (an), hydroxypropyl cellulose, lactose monohydrate, magnesium stearate, mannitol 100SD, MCC PH102, Opadry™ 11, povidone K-30, pregelatinized starch 1500, sodium starch glycolate, and sodium stearyl fumarate. The sample vials were set down at 40° C./75% RH condition for 8 weeks in open condition before analyzing their impurity levels using HPLC.

[5] = Pharmacokinetics after oral capsule administration to dogs pre-treated with pentagastrin or famotidine; assay type: in vivo, male beagle dogs; conditions: 100 mg/dog, particle size normalized
Protocol: The substances were filled into Empty HPMC Capsules after correcting for potency and administered to dogs pre-treated with either pentagastrin or famotidine along with 40 mL of water. Pentagastrin enhances gastric secretions whereas famotidine neutralizes gastric sections. Therefore, pentagastrin and famotidine pre-treatments were used to simulate the impact of gastric pH on bioavailability and reduce the variability in gastric pH between dogs.
Plasma samples were collected at pre-defined intervals and analyzed for the concentration of Compound 1. The plasma concentration versus time data was analyzed by non-compartmental approaches using Win Nonlin software program to estimate PK parameters such as Cmax, Tmax, AUC0-t and AUC0-inf.

Form conversion in competitive slurry ([1]; αw=0.13, room temperature)	Dissolution in gastric media ([2]; 37° C., 50 rpm)	Compatibility (tensile strength vs porosity) [3]	Compressibility (porosity vs compaction pressure) [3]	Tabletability (tensile strength vs compaction pressure) [3]	Loss of crystallinity (XRPD before and after compression) ([3]; high compaction pressures)	Compatibility with excipients (total impurity content) [4]	Risk of chemical stability ([4]; open)	Exposure (plasma AUC) compared with HCl salt [5]	SMILES	Conversion rate in competitive slurry ([1]; αw=0.13, compared with higher water activities)	Supersaturation in intestinal fluid ([2]; pH shifted from gastric to intestinal after 30 minutes)	Sensitivity to individual excipients (total impurity content) ([4]; colloidal silicon dioxide and lactose monohydrate, open)	Dissolution rate in intestinal media ([2]; intestinal media, 37° C., 50 rpm)
converted to Form A eventually	–	–	–	–	–	–	–	–	Cn1ncc(-c2ccc3c(=O)[nH]nc(CN)c3c2)c1-c1c(F)c(Cl)cc(OC2CC2)c1C#N [Form B, 2-(4-(4-(aminomethyl)-1-oxo-1,2-dihydrophthalazin-6-yl)-1-methyl-1H-pyrazol-5-yl)-4-chloro-6-cyclopropoxy-3-fluorobenzonitrile]	slightly slower than those at higher water activities	–	–	–
–	faster dissolution in gastric media	good	good	good	No apparent loss of crystallinity	good compatibility with excipients	slightly higher	equivalent exposure to HCl salt	Cn1ncc(-c2ccc3c(=O)[nH]nc(CN)c3c2)c1-c1c(F)c(Cl)cc(OC2CC2)c1C#N [Free Base Form A, 2-(4-(4-(aminomethyl)-1-oxo-1,2-dihydrophthalazin-6-yl)-1-methyl-1H-pyrazol-5-yl)-4-chloro-6-cyclopropoxy-3-fluorobenzonitrile]	–	able to maintain super saturation in intestinal fluid	more sensitive to colloidal silicon dioxide and lactose monohydrate than HCl Form B	–
–	common ion effect slowing dissolution	–	–	–	–	good compatibility with excipients	slightly higher	–	Cn1ncc(-c2ccc3c(=O)[nH]nc(CN)c3c2)c1-c1c(F)c(Cl)cc(OC2CC2)c1C#N [HCl Form B]	–	–	–	slightly faster dissolution rate than Free Base Form A
